“Also recorded” adds a separate entry of the source.
Legend:
Format in all cases: cell-based, human
[1] = test system: TSC2 mutant-expressing HEK293T cells; experiment: Western blot of S6K phosphorylation in TSC2 mutant-expressing HEK293T cells after drug treatment; conditions: Example 11; FIGS. 25a and 25b
Procedure: (§1) Briefly, HEK293T cells (Thermo Scientific) were cultured in DMEM (Dulbecco's Modified Eagle's Medium) supplemented with 10% FBS at 37° C. and 5% CO2. The cells were transfected with empty flag-tagged vector, HA-tagged TSC1 wild-type, HA-tagged TSC2 wild-type, HA-tagged AKT3 wild-type, HA-tagged TSC1 mutant, HA-tagged TSC2 mutant and HA-tagged AKT3 mutant, respectively, using jetPRIME transfection reagent (Polyplus, France).
(§2) The cells were serum-starved with 0.1% FBS in DMEM for 24 hours after transfection and then incubated at 37° C. and 5% CO2 in PBS containing 1 mM MgCl2 and CaCl2 for 1 hour. The cells were lysed with PBS containing 1% Triton X-100 and Halt protease and phosphatase inhibitor cocktail (78440, Thermo Scientific, USA). Proteins were resolved by SDS-PAGE and transferred to PVDF membranes (Millipore, USA). The membranes were blocked with 3% BSA in TBS containing 0.1% Tween 20 (TBST). They were washed 4 times with TBST. The membranes were incubated overnight with primary antibodies including a 1/1000 dilution of anti-phospho-S6 ribosomal protein (5364, Cell Signaling Technology, USA), anti-56 ribosomal protein (2217, Cell Signaling Technology, USA), and anti-flag M2 (8164, Cell Signaling Technology, USA) in TBST at 4° C., respectively. After incubation, the membranes were washed 4 times with TBST. […]

[2] = test system: mutant mTOR-expressing HEK293T cells; experiment: Western blot of S6/S6K phosphorylation in mutant mTOR-expressing HEK293T cells after drug treatment; conditions: for phosphorylation of S6K in all the mutant mTOR-expressing cells: Y1450D, C1483R, R1709H, Y1977K, S2215F, L2427P, L2427Q
Procedure: HEK293T cells (Thermo Scientific) was cultured in DMEM (Dulbecco's Modified Eagle's Medium) containing 10% FBS at 37° C. and 5% CO2. The cells were transfected with empty flag-tagged vector, flag-tagged mTOR wild type, and flag-tagged mTOR mutants using jetPRIME transfection reagent (Polyplus, France). The cells were serum-starved with DMEM containing 0.1% FBS for 24 hours after transfection and then incubated at 37° C. and 5% CO2 in PBS containing 1 mM MgCl2 and CaCl2 for 1 hour. The cells were lysed with PBS containing 1% Triton X-100 and Halt protease and phosphatase inhibitor cocktail (78440, Thermo Scientific, USA).
Proteins were resolved by SDS-PAGE and transferred to PVDF membranes (Millipore, USA). The membranes were blocked with 3% BSA in TBS containing 0.1% Tween 20 (TBST). They were washed 4 times with TBST. The membranes were each incubated overnight at 4° C. with primary antibodies including a 1/1000 dilution of anti-phospho-S6 ribosomal protein (5364, Cell Signaling Technology, USA), anti-56 ribosomal protein (2217, Cell Signaling Technology, USA), and anti-flag M2 (8164, Cell Signaling Technology, USA) in TBST. After incubation, the membranes were washed 4 times with TBST. They were incubated with a 1/5000 dilution of HRP-linked anti-rabbit or anti-mouse secondary antibodies (7074, Cell Signaling Technology, USA) for 2 hours at room temperature. After washing with TBST, immunodetection was performed using ECL reaction reagents.
Transfection of mTOR mutants into HEK293T cells was carried out in the same manner as in Example 3-2. Then, the cells were serum-starved with DMEM containing 0.1% FBS for 24 hours and incubated at 37° C. and 5% CO2 in PBS containing 1 mM MgCl2 and CaCl2 for 1 hour, followed by treatment with rapamycin, everolimus, or compounds of Chemical Formulas 1 to 4 (Torinl, INK128, AZD8055, GSK2126458); Torin was purchased from TOCRIS, INK128, AZD8055, and GSK2126458 were provided from Selleckchem, and everolimus was purchased from LC laboratory. Subsequently, Western blotting was performed in the same manner as in Example 9.
Cells expressing various mTOR mutations were treated in the same manner as in Example 3-2 with rapamycin, everolimus, or the compounds of Chemical Formulas 1 to 4 and monitored for S6K phosphorylation. The mTOR mutations were R624H, Y1450D, C1483R, R1709H, Y1977K, S2215F, L2427P, and L2427Q. […]
Cells expressing various mTOR mutations were treated in the same manner as in Example 9-1 with rapamycin, everolimus, or the compounds of Chemical Formulas 1 to 4, and monitored for S6K phosphorylation. […]

[3] = test system: TSC1 mutant-expressing HEK293T cells; experiment: Western blot of S6K phosphorylation in TSC1 mutant-expressing HEK293T cells after drug treatment; conditions: Example 11; FIGS. 24a and 24b
Procedure: as §1, §2

CO[C@H]1C[C@@H]2CC[C@@H](C)[C@@](O)(O2)C(=O)C(=O)N2CCCC[C@H]2C(=O)O[C@H]([C@H](C)C[C@@H]2CC[C@@H](OCCO)[C@H](OC)C2)CC(=O)[C@H](C)/C=C(\C)[C@@H](O)[C@@H](OC)C(=O)[C@H](C)C[C@H](C)/C=C/C=C/C=C/1C [everolimus]
S6K phosphorylation in TSC2 mutant-expressing cells [1]: inhibit
phosphorylation of S6K in mutant mTOR-expressing cells ([2]; Example 3-4, HEK293T, Western blot, FIGS. 9a to 9c): inhibited; also recorded: reduce
phosphorylation of S6K in all the mutant mTOR-expressing cells ([2]; Example 3-5, mutations R624H, FIGS. 13 and 14): inhibited
phosphorylation of S6 in mutant mTOR-expressing cells ([2]; Example 10-1, FIG. 22, mTOR L2427P-expressing cells): inhibited
phosphorylation of S6K in all the mutant mTOR-expressing cells ([2]; Example 10-2, variants R624H, FIGS. 23a and 23b): inhibited
S6K phosphorylation in TSC1 mutant-expressing cells [3]: inhibit
